# System: wild-type rat neonatal CMs
# Assay: Neonatal CM cell culture model: proliferation and apoptosis (planned)
# Assay type: cell-based
# Conditions: low concentrations 0.1-3 μM, 24 hours; expected
# Text: The cells will then be assessed for cell proliferation by direct cell counting and [3H]-thymidine incorporation as well as by immunostaining for Ki67, BrdU and pH3. Apoptosis will also be evaluated, by TUNEL labeling and by staining of caspase-3. All results will be confirmed using a minimum of three independent determinations, and statistical evaluation will be performed using ANOVA or a Student's t-test, as appropriate.
structure (smiles),measurement,value
c1cc(SSc2ccns2)sn1 [NU9056],"CM proliferation (cell counting, [3H]-thymidine, Ki67, BrdU, pH3)",promote CM proliferation
